{"source": "patent US10350235B2", "about": "“Cationic polysaccharides for delivery of phosphoinositides to cells for therapeutic purpose” (priority 2015, dated 2019)", "key": {"[1]": {"test_system": "HEK293 cells", "assay": "Autophagy flux (LC3-II western blot with and without bafilomycin A1)", "assay_type": "cell-based", "procedure": "Autophagy Flux was assessed using western blot by comparing of the cumulative LC3-II levels in HEK293 cells with and without autophagy inhibitor—bafilomycin A1 (vacuolar H+ ATPase inhibitor, 0.1 μM). Bafilomycin A1 inhibits autophagosomes degradation by fusion with lysosome since it prevents the lysosome acidification. LC3-II is an autophagosomal membrane protein therefore it is used as autophagy marker. HEK293 cells were seeded in a 6-well plate 24 hours before treatment in DMEM growth media. The cells were incubated with or without bafilomycin A1 and 3-Methyladenine (3-MA) in EBSS for 2 hours (3-MA, 5 mM) in 37° C. and 5% CO2. 3-MA acts as an autophagy inhibitor since it inhibits III phosphatidylinositol 3-kinases (PI-3K) which produce the endogenous PI3P. At the second hour the cells were treated with Q-starch/PI3P complexes at N/P ratio of 2 and with PI3P alone as control (final PI3P concentration in each well was 0.5 μM).\nUp-regulation of autophagy in HEK293 cells with the Q-starch/PI3P complexes was assessed by comparing the autophagy flux for the following conditions (FIG. 7): flux after 3 hours of serum starvation, flux after inhibition of the formation of endogenous PI3P by 3-MA (3-Methyladenine), flux after treatment with 3-MA and complexes at N/P ratio of 2 and flux after treatment with 3-MA and PI3P."}, "[2]": {"assay": "Zeta potential (Zetasizer, Smoluchowski model)", "assay_type": "physicochemical", "details": "in mV (unit assumed)", "procedure": "The hydrodynamic size of the complexes was measured by dynamic light scattering (DLS). Spectra were collected by using CGS-3, (ALV, Langen, Germany). The laser power was 20 mW at the He—Ne laser line (632.8 nm). Correlograms were calculated by ALV/LSE 5003 correlator, which were collected at 90°, during 20 s for 10 times, at 25° C. The correlograms were fitted with version of the program CONTIN (provencher, 1982). Samples of complexes were each diluted to a final volume of 1 mL in DDW. Each sample was measured three times and solutions were further diluted until results were independent of dilution rate. Complexes' size is presented as average of triplicates. Samples from DLS were transferred to U-tube cuvette (DTS 1070, Malvern) for subsequent zeta potential measurements using Zetasizer (ZN-NanoSizer, Malvern, England). Each sample was measured at automatic mode, at 25° C. and the Smoluchowski model was used to calculate the zeta potential. For each sample the zeta potential value was presented as the average value of three runs, and the average value of each N/P ratio is presented as the average of triplicates."}, "[3]": {"assay": "Cryo-TEM imaging of complex size and geometry in solution", "assay_type": "physicochemical", "details": "FIG. 3; complexes at N/P ratios of 2 to 3", "procedure": "Complex size and geometry in solution were visualized using Cryo-TEM. TEM at cryogenic temperature (Cryo-TEM) is used for direct imaging of solutions and dispersions. Vitrified specimens are prepared on a copper grid coated with a perforated lacy carbon 300 mesh (Ted Pella Inc.). A typically 4 μl drop from the solution is applied to the grid and blotted with a filter paper to form a thin liquid film of solution. The blotted sample are immediately plunged into liquid ethane at its freezing point (−183° C.). The procedure is performed automatically in the Plunger (Lieca EM GP). The vitrified specimens are transferred into liquid nitrogen for storage. the samples are studied using a FEI Tecnai 12 G2 TEM, at 120 kV with a Gatan cryo-holder maintained at −180° C., and images are recorded on a slow scan cooled charge-coupled device CCD camera Gatan manufacturer. Images are recorded with the Digital Micrograph software package, at low dose conditions, to minimize electron beam radiation damage."}}, "data": [{"smiles": "Cn1cnc(N)c2ncnc1-2", "note": "[3-MA, 3-Methyladenine]", "values": [{"measurement": "autophagy flux (difference in LC3-II levels with and without bafilomycin A1)", "setting": "[1]; 3-MA 5 mM alone, compared to serum starvation", "value": "decrease in the autophagy flux"}]}, {"smiles": "CCCCCCCC(=O)OC[C@H](COP(=O)(O)O[C@@H]1[C@H](O)[C@H](OP(=O)(O)O)[C@@H](O)[C@H](O)[C@H]1O)OC(=O)CCCCCCC", "note": "[PI3P, Phosphatidylinositol 3-phosphate diC8]", "values": [{"measurement": "autophagy flux (difference in LC3-II levels with and without bafilomycin A1)", "setting": "[1]; with 3-MA 5 mM in EBSS, final PI3P 0.5 μM, complexes at N/P=2", "value": "did not affect the levels of autophagy flux"}, {"measurement": "average zeta potential", "setting": "[2]; non-complexed alone (FIG. 4B): 0.5 μM PI3P, 0.45 mg/L Q-starch", "value": "−14.8±3.8"}]}, {"smiles": "CCCCCCCCCCCCCCCC(=O)OC[C@H](COP(=O)(O)OC1[C@H](O)[C@H](OP(=O)(O)O)C(OP(=O)(O)O)[C@H](OP(=O)(O)O)[C@H]1O)OC(=O)CCCCCCCCCCCCCCC", "note": "(some centres unmarked) [PIP3, phosphatidylinositol (3,4,5) trisphosphate diC16]", "values": [{"measurement": "average zeta potential", "setting": "[2]; non-complexed component alone (FIG. 1)", "value": "−20.83"}, {"measurement": "shape in cryo-TEM images", "setting": "[3]", "value": "shape of long filaments"}]}]}
